Laboratory results from PMC4310624 (Biochemistry, 2014).

Key:
[1] = target: T1, SHV-1 (Klebsiella pneumoniae, UniProt P0AD64); conditions: SHV-1, E/I = 1:10, nitrocefin assay
T1 sequence (P0AD64 22-286): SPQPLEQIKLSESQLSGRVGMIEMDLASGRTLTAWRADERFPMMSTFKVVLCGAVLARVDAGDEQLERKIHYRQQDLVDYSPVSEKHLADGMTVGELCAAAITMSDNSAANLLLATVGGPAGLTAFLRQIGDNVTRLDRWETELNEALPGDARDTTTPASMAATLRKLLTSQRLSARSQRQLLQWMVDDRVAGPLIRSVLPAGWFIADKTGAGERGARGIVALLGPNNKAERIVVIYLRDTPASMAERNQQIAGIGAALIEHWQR

[2] = test system: E. coli DH10B pBCSK SHV-1; test: Disc diffusion assay, SHV-1 expressing strain; type: cell-based, Escherichia coli; conditions: for zone size of cephalothin combined with the inhibitor: strain expressing SHV-1
[3] = Base hydrolysis in 1 M NaOH followed by Raman spectroscopy; type: physicochemical
[4] = test system: E. coli DH10B pBCSK control; test: Disc diffusion assay, control strain; type: cell-based, Escherichia coli; conditions: cephalothin 30 μg and 30 μg of each inhibitor, 37 °C, 18 h
[5] = test system: class A or C enzymes; conditions: ref unpublished screening work, Bethel and Bonomo; cited from earlier work

CC1(C)[C@H](C(=O)O)N2C(=O)C[C@H]2S1(=O)=O [sulbactam]
enzyme activity against nitrocefin after reaction with inhibitor [1]: remained fully active | zone size of cephalothin combined with the inhibitor [2]: 10 mm | time for conversion of imine to cis-enamine ([3]; 1 M NaOH, Raman, all imine converted): 60 min | time to hydrolysis to imine (lactam ring opening, imine maximum) ([3]; 1 M NaOH, room temperature, Raman): less than 3 min | time for iminium ion conversion to cis-enamine ([3]; base hydrolysis, as stated in abstract): 1 h

CC(=O)OCC1=C(C(=O)O)N2C(=O)[C@@H](NC(=O)Cc3cccs3)[C@H]2SC1 [cephalothin]
zone diameter [4]: 34 mm | zone diameter ([2]; cephalothin 30 μg and 30 μg of each inhibitor, 37 °C, 18 h): 6 mm

CC1(C)[C@H](C(=O)O)N2C(=O)[C@@H](CO)[C@H]2S1(=O)=O [6α-(hydroxymethyl)penicillanic acid sulfone]
inhibition in the IC50 or MIC assays [5]: did not show any inhibition

C[C@]1(Cn2ccnn2)[C@H](C(=O)O)N2C(=O)C[C@H]2S1(=O)=O [tazobactam]
zone size of cephalothin combined with the inhibitor [2]: 16 mm
